From patent US9750742B2, “Small molecular inhibitors of RAD51 recombinase and methods thereof” (Drexel University, priority 2011, dated 2017)

Tests used:
MEF cells = assay: Clonogenic survival assay, MEF; type: cell-based, mouse; details: AZD2281 1 μM versus MMS only
Experimental: Briefly, MEF cells were trypsinized and the appropriate number of cells was replated on 10 cm tissue culture dishes. […] Cells were fixed and stained using staining solution (0.05% crystal violet, 50% methanol in PBS); colonies were counted using an AlphaImager 3400 (Alpha Innotech Inc.). The percent of survival was determined as described (Hall & Giccia, 2005, “Radiobiology for the Radiologist”, 6th Ed., Philadelphia, Pa.: Lippincott Williams & Wilkins, pp. 30-45). The percent of survival obtained from untreated cells was normalized to 100% survival.

RecA = molecular target: T1, RecA (Escherichia coli, UniProt P0A7G6); assay: biochemical; set-up: species or system E. coli; details: for IC50: IC50 (RecA), RecA 1 μM, ssDNA 3 μM, dsDNA 50 μM; for inhibition of RecA DNA strand exchange, in words: up to 100 μM
T1 construct: purchased USB Inc. (Cleveland, Ohio)
Experimental: (Mazin et al., 2000, EMBO J. 19:1148-56). When indicated, chemical compounds in specified concentrations were added and incubation was continued for 30 min at 37° C. D-loop formation was initiated by addition of supercoiled pUC19 dsDNA (50 μM, nt) and carried out for 3 min at 37° C. The DNA products were deproteinized and analyzed as described above for the Rad51-promoted reaction.
(§1) IC50 values were calculated using GraphPad Prism V5.0 software and the sigmoidal dose-response function. The data were obtained from three independent repeats of experiments.

RAD51 = molecular target: T2, RAD51 (Homo sapiens, UniProt Q06609); assay: D-loop assay for RAD51; type: biochemical; details: for inhibitory effect on D-loop formation by RAD51, in words: B02 derivatives 50 μM; for IC50: RAD51 1 μM, ssDNA 3 μM, dsDNA 50 μM, compound added after filament formation
T2 construct: made in house
T2 sequence (Q06609 1-339): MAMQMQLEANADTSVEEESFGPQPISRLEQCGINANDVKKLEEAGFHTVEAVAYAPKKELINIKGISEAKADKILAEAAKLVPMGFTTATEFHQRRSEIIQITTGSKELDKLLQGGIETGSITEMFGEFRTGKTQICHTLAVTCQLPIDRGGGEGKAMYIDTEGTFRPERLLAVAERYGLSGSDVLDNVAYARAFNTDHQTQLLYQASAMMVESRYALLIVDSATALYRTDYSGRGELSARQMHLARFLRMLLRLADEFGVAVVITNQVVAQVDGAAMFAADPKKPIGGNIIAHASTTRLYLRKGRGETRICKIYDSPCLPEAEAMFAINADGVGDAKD
Experimental: When indicated, chemical compounds in question were added in specified concentrations and incubation was continued for 30 min at 37° C. D-loop formation was initiated by addition of supercoiled pUC19 dsDNA (50 μM, nt) and continued for 15 min. Reactions were stopped by addition of SDS to 1% (w/v) and proteinase K to 880 μg ml^−1 followed by incubation for 15 min at 37° C. […] The yield of joint molecules was expressed as a percentage of the total plasmid DNA.
The reaction was deproteinized and analyzed as described above.
as §1

T1 sequence (P0A7G6 whole entry): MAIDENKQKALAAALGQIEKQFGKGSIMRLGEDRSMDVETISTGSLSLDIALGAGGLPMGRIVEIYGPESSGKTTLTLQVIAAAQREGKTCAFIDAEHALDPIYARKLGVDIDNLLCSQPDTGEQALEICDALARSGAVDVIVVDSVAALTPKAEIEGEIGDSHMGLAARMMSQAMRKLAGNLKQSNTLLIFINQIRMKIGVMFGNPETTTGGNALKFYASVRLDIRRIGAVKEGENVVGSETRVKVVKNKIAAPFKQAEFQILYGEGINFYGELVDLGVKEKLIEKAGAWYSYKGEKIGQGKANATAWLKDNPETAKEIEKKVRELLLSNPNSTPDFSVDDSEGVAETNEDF

Row | SMILES | sensitivity to MMS (MEF cells) | IC50 (RecA) [µM] | inhibition of RecA DNA strand exchange, in words (RecA) | inhibitory effect on D-loop formation by RAD51, in words (RAD51) | IC50 (RAD51) [µM]
1 | O=C(c1cc(Cc2n[nH]c(=O)c3ccccc23)ccc1F)N1CCN(C(=O)C2CC2)CC1 [AZD2281, 4-[(3-[(4-cyclopropylcarbonyl)piperazin-4-yl]carbonyl)-4-fluorophenyl]methyl(2H)phthalazin-1-one, reference compound] | more sensitive |  |  |  | 
2 | CCn1c(/C=C/c2cccnc2)nc2ccccc2c1=O [Compound C3a, (E)-3-ethyl-2-(2-(pyridin-3-yl)vinyl)quinazolin-4(3H)-one] |  | > 100 | do not inhibit | retain the inhibitory effect | 15.3
3 | Cc1cccc(-n2c(/C=C/c3cccnc3)nc3ccccc3c2=O)c1 [Compound C3b, (E)-2-(2-(pyridin-3-yl)vinyl)-3-(m-tolyl)quinazolin-4(3H)-one] |  | > 100 | do not inhibit | retain the inhibitory effect | 27.3
4 | Cc1ccc(-n2c(C=Cc3cccnc3)nc3ccccc3c2=O)cc1 [Compound C3c] |  |  |  | eliminates the inhibition | 
5 | O=c1c2ccccc2nc(C=Cc2cccnc2)n1-c1ccccc1 [Compound C3d] |  |  |  | eliminates the inhibition | 
6 | Cn1c(C=Cc2cccnc2)nc2ccccc2c1=O [Compound C3e] |  |  |  | eliminates the inhibition | 
